This note sets out measurements from EP0444482B1, “Oxetanones” (F. HOFFMANN-LA ROCHE AG, priority 1990, dated 1991).

Data set [1] in a line: Acute toxicity after a single oral administration. The conditions noted are these: mouse, in vivo, mice, read-out: akute Toxizität. How it is done:
Die akute Toxizität (nach einmaliger oraler Verabreichung an Mäusen) beträgt mehr als 5000 mg/kg für die Produkte der Beispiele 3d, 3h, 3i, 3l, 4a und 10a, b, e und f.

Data set [2] concerns the target T1, Schweinepankreaslipase (Sus scrofa, UniProt P00591).
T1 sequence (P00591 1-450): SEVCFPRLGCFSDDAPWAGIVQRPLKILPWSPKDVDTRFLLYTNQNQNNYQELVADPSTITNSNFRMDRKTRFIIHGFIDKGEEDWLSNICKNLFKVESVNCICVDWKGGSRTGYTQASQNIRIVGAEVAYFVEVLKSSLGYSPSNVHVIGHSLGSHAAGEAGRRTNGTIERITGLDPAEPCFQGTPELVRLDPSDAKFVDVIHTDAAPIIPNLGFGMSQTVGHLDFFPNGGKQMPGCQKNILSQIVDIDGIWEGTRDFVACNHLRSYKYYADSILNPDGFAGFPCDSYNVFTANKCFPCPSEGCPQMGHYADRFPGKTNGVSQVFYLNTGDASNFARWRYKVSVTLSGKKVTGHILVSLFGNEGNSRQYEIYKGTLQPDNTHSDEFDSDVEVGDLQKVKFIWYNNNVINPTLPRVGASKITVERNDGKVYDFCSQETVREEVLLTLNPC
As to the kind of experiment: Inhibition of pancreatic lipase (titrimetric measurement of oleic acid released from triolein). It counts as biochemical, Schwein. The conditions noted are these: substrate triolein emulsion, pH 8, NaOH consumption over 10 min, 1-3 µg lipase; concentration giving half-maximal inhibition of lipase activity; read-out: IC₅₀ (converted). The protocol: Die Hemmung der Pankreaslipase durch die Oxetanone der Formel I kann experimentell gezeigt werden, indem man die bei der Spaltung von Triolein durch Schweinepankreaslipase freigesetzte Oelsäure titrimetrisch erfasst. Zu einer Emulsion, welche 1 mM Taurodeoxycholat, 9 mM Taurocholat, 0,1 mM Cholesterin, 1 mM Eilezithin, 15 mg/ml BSA, 2 mM Tris-HCl, 100 mM Natriumchlorid, 1 mM Calciumchlorid und das Substrat Triolein enthält, gibt man die in Aethanol oder Dimethylsulfoxid (10% des Emulsionsvolumens) gelöste Verbindung der Formel I und startet die Reaktion durch Zugabe von 1-3 µg Schweinepankreaslipase. Das pH wird während der Reaktion durch Zugabe von Natronlauge bei 8 gehalten. Aus dem während 10 Minuten ermittelten Verbrauch an Natronlauge wird die IC₅₀ berechnet. Die IC₅₀ ist diejenige Konzentration, bei der die Lipaseaktivität halbmaximal gehemmt wird. Die nachfolgende Tabelle enthält die für die Verbindungen der Formel I ermittelten IC₅₀-Werte in µg/ml.

SMILES strings stand for the structures.

For `CCCCCCCCCCC[C@@H](C[C@@H]1OC(=O)[C@H]1CCCCCC)OC(=O)C(C)(C)C(N)=O` [Beispiel 3h, (S)-1-[[(2S,3S)-3-Hexyl-4-oxo-2-oxetanyl]methyl]dodecyl-2,2-dimethylmalonamat], the LD50 in data set [1] was over 5000 mg/kg. Besides, in data set [2], the IC50 is 4490 nM.
Take `CCCCCCCCCCCCCCCCC[C@@H](C[C@@H]1OC(=O)[C@H]1CC)OC(=O)C(N)=O` [Beispiel 10a, (S)-1-[[(2S,3S)-3-Aethyl-4-oxo-2-oxetanyl]methyl]octadecyloxamat]: the LD50 in data set [1] is over 5000 mg/kg. Moreover, the IC50 in data set [2] is 183 nM.
For `CCCCCCCCCCC[C@@H](C[C@@H]1OC(=O)[C@H]1CCCCCC)OC(=O)C(C)C(N)=O` (mixture of isomers) [Beispiel 3i, (S)-1-[[(2S,3S)-3-Hexyl-4-oxo-2-oxetanyl]methyl]dodecyl-(RS)-2-methylmalonamat], in that order: over 5000 mg/kg and 926 nM.
Taken in the same sequence, the figures for `CCCCCCCCCCC[C@@H](C[C@@H]1OC(=O)[C@H]1CCCCCC)OC(=O)C(N)=O` [Beispiel 3d, (S)-1-[[(2S,3S)-3-Hexyl-4-oxo-2-oxetanyl]methyl]dodecyloxamat] were over 5000 mg/kg and 2110 nM.
For `CCCCCCCCCCCCCCCCC[C@@H](C[C@@H]1OC(=O)[C@H]1CC)OC(=O)CCC(N)=O` [Beispiel 10f, (S)-1-[[(2S,3S)-3-Aethyl-4-oxo-2-oxetanyl]methyl]octadecyl-succinamat], in that order: over 5000 mg/kg and 664 nM.
On to `CCCCCCCCCCCCCCCCC[C@@H](C[C@@H]1OC(=O)[C@H]1CC)OC(=O)C1(C(N)=O)CCCCC1` [Beispiel 4a, (S)-1-[[(2S,3S)-3-Aethyl-4-oxo-2-oxetanyl]methyl]octadecyl-1-carbamoylcyclohexancarboxylat], for which the LD50 in data set [1] is over 5000 mg/kg. Further, the IC50 in data set [2] is 299 nM.
